# Data from patent US6706663B2, “Herbicidal 3-heterocyclic substituted benzisothiazole and benzisoxazole compounds” (Wyeth, priority 2000, dated 2004).
# Key:
# ZEAMX (Corn, Field) = assay: Preemergence herbicidal evaluation; type: in vivo, Zea mays, L.; conditions: preemergence, rated 4-5 weeks after treatment
# [1] = tested on: IPOHE (Ipomoea hederacea); assay: Preemergence herbicidal evaluation; type: in vivo, (L.) Jacq.; conditions: preemergence, rated 4-5 weeks after treatment
# [2] = tested on: CASOB (Cassia obtusifolia); assay: Postemergence herbicidal evaluation; type: in vivo, L.
# Outline: (§1)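 Seedlings grown for about two weeks were sprayed postemergence and then kept under standard greenhouse care. Injury was rated visually 4–5 weeks after treatment on a 0–9 scale against untreated controls, and ratings from repeat tests were averaged.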
# [3] = tested on: CHEAL (Chenopodium album); assay: Postemergence herbicidal evaluation; type: in vivo, L.
# Outline: as §1
# [4] = tested on: AMBEL (Ambrosia artemisifolia); assay: Postemergence herbicidal evaluation; type: in vivo, L.
# Outline: as §1
# [5] = tested on: ABUTH (Abutilon theophrasti); assay: Postemergence herbicidal evaluation; type: in vivo, Medic.
# Outline: as §1
# [6] = tested on: GLXMAW (Soybean, Williams); assay: Preemergence herbicidal evaluation; type: in vivo, Glycine max, (L.) Merr. cv Williams; conditions: preemergence, rated 4-5 weeks after treatment
# CYPIR (Cyperus iria) = assay: Flooded paddy, preemergence weed control; type: in vivo; conditions: rated 3-4 weeks after treatment, 0-9 rating scale
# Outline: (§2)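 Visual 0–9 ratings versus controls scored stand, vigor, malformation, size, chlorosis and overall appearance. Plants grew from seeds or propagating organs sown 0.5 cm deep in silt loam, with water held 1.5–3 cm above the soil for the whole test under greenhouse care.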
# GALAP (Galium aparine) = assay: Postemergence herbicidal evaluation; type: in vivo
# Outline: as §1
# ORYSAT (Rice, Tebonnet) = assay: Flooded paddy, post-transplant rice tolerance; type: in vivo, Oryza sativa, (L.) Tebonnet; conditions: flooded paddy, post-transplant rice, rated 3-4 weeks after treatment, 0-9 rating scale
# Outline: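 Ten-day-old seedlings, 2/pot, silt loam; flood kept 1.5–3 cm over soil; herbicide applied post-transplant; greenhouse; score 0–9 visual vs control.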
# [7] = tested on: SAGPY (Sagittaria pygmaea); assay: Flooded paddy, preemergence weed control; type: in vivo, L.; conditions: rated 3-4 weeks after treatment, 0-9 rating scale
# Outline: as §2
Compound,"ZEAMX preemergence herbicidal rating (ZEAMX (Corn, Field); Rate 0.0620 kg/ha)","ZEAMX preemergence herbicidal rating (ZEAMX (Corn, Field); Rate 0.1250 kg/ha)","ZEAMX preemergence herbicidal rating (ZEAMX (Corn, Field); Rate 0.2500 kg/ha)",IPOHE preemergence herbicidal rating ([1]; Rate 0.0620 kg/ha),IPOHE preemergence herbicidal rating ([1]; Rate 0.1250 kg/ha),IPOHE preemergence herbicidal rating ([1]; Rate 0.2500 kg/ha),"Postemergence herbicidal rating, CASOB ([2]; rate 0.0320 kg/ha)","Postemergence herbicidal rating, CASOB ([2]; rate 0.0620 kg/ha)","Postemergence herbicidal rating, CHEAL ([3]; rate 0.0320 kg/ha)","Postemergence herbicidal rating, CHEAL ([3]; rate 0.0620 kg/ha)","Postemergence herbicidal rating, AMBEL ([4]; rate 0.0320 kg/ha)","Postemergence herbicidal rating, AMBEL ([4]; rate 0.0620 kg/ha)","Postemergence herbicidal rating, ABUTH ([5]; rate 0.0320 kg/ha)","Postemergence herbicidal rating, ABUTH ([5]; rate 0.0620 kg/ha)",GLXMAW preemergence herbicidal rating ([6]; Rate 0.0620 kg/ha),GLXMAW preemergence herbicidal rating ([6]; Rate 0.1250 kg/ha),GLXMAW preemergence herbicidal rating ([6]; Rate 0.2500 kg/ha),"herbicidal rating, CYPIR (CYPIR (Cyperus iria); rate 0.0320 kg/ha)","herbicidal rating, CYPIR (CYPIR (Cyperus iria); rate 0.1250 kg/ha)","Postemergence herbicidal rating, GALAP (GALAP (Galium aparine); rate 0.0320 kg/ha)",further results
"1-methyl-3-[3-(1,3-oxathiolan-2-yl)-1,2-benzisothiazol-5-yl]-6-(trifluoromethyl)uracil S′,S′-dioxide [Compound 32]",6.0,9.0,9.0,9.0,9.0,9.0,7.0,9.0,9.0,9.0,9.0,9.0,9.0,9.0,6.5,9.0,9.0,4.0,7.0,2.0,"Postemergence herbicidal rating, GALAP (GALAP (Galium aparine); rate 0.0620 kg/ha): 6.0"
"Cc1ccc(-c2nsc3ccc(N4C(=O)C5=C(CCCC5)C4=O)cc23)s1 [Compound 20, N-[3-(5-methyl-2-thienyl)-1,2-benzisothiazol-5-yl]-1-cyclohexene-1,2-dicarboximide]",0.0,0.0,0.0,0.0,0.0,0.0,1.0,1.0,3.0,5.0,6.0,6.0,7.0,9.0,0.0,0.0,0.0,2.0,3.0,1.0,"herbicidal rating, ORYSAT (rice tolerance) (ORYSAT (Rice, Tebonnet); rate 0.0320 kg/ha): 2.0; herbicidal rating, ORYSAT (rice tolerance) (ORYSAT (Rice, Tebonnet); rate 0.1250 kg/ha): 2.0; Postemergence herbicidal rating, CASOB ([2]; rate 0.1250 kg/ha): 1.0; Postemergence herbicidal rating, CHEAL ([3]; rate 0.1250 kg/ha): 5.0; Postemergence herbicidal rating, AMBEL ([4]; rate 0.1250 kg/ha): 9.0; Postemergence herbicidal rating, ABUTH ([5]; rate 0.1250 kg/ha): 9.0; Postemergence herbicidal rating, GALAP (GALAP (Galium aparine); rate 0.0620 kg/ha): 1.0; Postemergence herbicidal rating, GALAP (GALAP (Galium aparine); rate 0.1250 kg/ha): 1.0"
"COC(=O)C(C)Oc1ccsc1-c1nsc2ccc(-n3c(=O)cc(C(F)(F)F)n(C)c3=O)cc12 (stereo not drawn) [Compound 23, methyl 2-[(2-[5-[3,6-dihydro-3-methyl-2,6-dioxo-4-(trifluoromethyl)-1(2H)-pyrimidinyl]-1,2-benzisothiazol-3-yl]-3-thienyl]oxy]propionate]",0.0,0.0,0.0,0.0,0.0,0.0,0.0,0.0,2.0,4.0,2.0,6.0,9.0,9.0,0.0,0.0,0.0,9.0,9.0,1.0,"herbicidal rating, ORYSAT (rice tolerance) (ORYSAT (Rice, Tebonnet); rate 0.0320 kg/ha): 0.0; herbicidal rating, ORYSAT (rice tolerance) (ORYSAT (Rice, Tebonnet); rate 0.1250 kg/ha): 3.0; Postemergence herbicidal rating, CASOB ([2]; rate 0.1250 kg/ha): 2.0; Postemergence herbicidal rating, CHEAL ([3]; rate 0.1250 kg/ha): 6.0; Postemergence herbicidal rating, AMBEL ([4]; rate 0.1250 kg/ha): 9.0; Postemergence herbicidal rating, ABUTH ([5]; rate 0.1250 kg/ha): 9.0; Postemergence herbicidal rating, GALAP (GALAP (Galium aparine); rate 0.0620 kg/ha): 2.0; Postemergence herbicidal rating, GALAP (GALAP (Galium aparine); rate 0.1250 kg/ha): 2.0"
"Cn1c(C(F)(F)F)cc(=O)n(-c2ccc3snc(C(SCCO)SCCO)c3c2)c1=O [Compound 33, 1,2-benzisothiazole-3-carboxaldehyde, 5-[3,6-dihydro-3-methyl-2,6-dioxo-4-(trifluoromethyl)-1(2H)-pyrimidinyl]-, 3-[bis(2-hydroxyethyl)dithioacetal]]",0.0,2.0,2.0,0.0,5.0,5.0,0.0,1.0,3.0,7.0,4.0,9.0,9.0,9.0,0.0,1.0,3.0,0.0,3.0,0.0,"Postemergence herbicidal rating, GALAP (GALAP (Galium aparine); rate 0.0620 kg/ha): 3.0"
"Cc1ccn(-c2nsc3ccc(-n4c(=O)cc(C(F)(F)F)n(C)c4=O)cc23)n1 [Compound 38, 1-methyl-3-[3-(3-methylpyrazol-1-yl)-1,2-benzisothiazol-5-yl]-6-(trifluoromethl)uracil]",5.0,5.0,8.0,0.0,0.0,6.0,0.0,1.0,0.0,3.0,0.0,0.0,9.0,9.0,0.0,4.0,4.0,9.0,9.0,0.0,"herbicidal rating, SAGPY ([7]; rate 0.0080 kg/ha): 0.0; herbicidal rating, SAGPY ([7]; rate 0.0320 kg/ha): 4.5; herbicidal rating, SAGPY ([7]; rate 0.1250 kg/ha): 9.0; herbicidal rating, CYPIR (CYPIR (Cyperus iria); rate 0.0080 kg/ha): 3.0; Postemergence herbicidal rating, GALAP (GALAP (Galium aparine); rate 0.0620 kg/ha): 4.0"
